{"source": "patent US20210283163A1", "about": "“COMPOSITIONS AND METHODS FOR THE TREATMENT OF ACUTE AND CHRONIC PRURITIS” (Duke University, priority 2018, published 2021)", "key": {"hTRPA1": {"target": "hTRPA1 (Homo sapiens, UniProt O75762)", "sequence (O75762 whole entry)": "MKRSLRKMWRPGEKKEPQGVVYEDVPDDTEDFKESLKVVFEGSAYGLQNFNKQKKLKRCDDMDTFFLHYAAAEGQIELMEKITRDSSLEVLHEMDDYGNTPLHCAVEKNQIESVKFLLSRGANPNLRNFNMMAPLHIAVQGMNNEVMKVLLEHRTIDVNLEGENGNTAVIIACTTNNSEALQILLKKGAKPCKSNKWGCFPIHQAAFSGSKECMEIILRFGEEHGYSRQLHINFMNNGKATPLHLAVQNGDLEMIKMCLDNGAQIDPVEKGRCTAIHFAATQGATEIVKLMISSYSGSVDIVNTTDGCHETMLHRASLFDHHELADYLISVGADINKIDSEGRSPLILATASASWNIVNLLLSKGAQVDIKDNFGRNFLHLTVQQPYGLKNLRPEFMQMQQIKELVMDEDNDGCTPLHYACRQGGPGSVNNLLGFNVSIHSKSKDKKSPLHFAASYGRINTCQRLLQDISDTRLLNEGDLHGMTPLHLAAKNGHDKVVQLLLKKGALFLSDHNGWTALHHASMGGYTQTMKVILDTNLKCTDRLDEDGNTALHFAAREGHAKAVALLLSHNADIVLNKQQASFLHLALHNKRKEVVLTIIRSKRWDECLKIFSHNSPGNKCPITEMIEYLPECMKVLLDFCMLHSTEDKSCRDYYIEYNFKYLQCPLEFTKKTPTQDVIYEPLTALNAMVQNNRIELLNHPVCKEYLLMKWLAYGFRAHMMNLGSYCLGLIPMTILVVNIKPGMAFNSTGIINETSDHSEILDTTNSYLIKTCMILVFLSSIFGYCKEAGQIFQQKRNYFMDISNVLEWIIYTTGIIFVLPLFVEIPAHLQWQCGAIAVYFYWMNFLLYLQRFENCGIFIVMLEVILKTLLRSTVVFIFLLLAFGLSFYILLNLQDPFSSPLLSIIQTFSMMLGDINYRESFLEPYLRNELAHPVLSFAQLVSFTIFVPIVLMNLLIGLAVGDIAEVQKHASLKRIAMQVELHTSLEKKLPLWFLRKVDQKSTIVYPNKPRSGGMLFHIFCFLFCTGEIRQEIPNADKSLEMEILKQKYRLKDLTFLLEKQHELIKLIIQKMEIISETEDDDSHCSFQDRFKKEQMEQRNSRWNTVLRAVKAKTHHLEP", "experiment": "Whole-cell patch clamp, inward currents in HEK293 cells expressing hTRPA1", "assay_type": "cell-based", "procedure": "Cell Culture and Transfection. CD4^+ Myla cell line was cultured in RPMI 1640 media (GIBCO), supplemented with 2 mM Glutamine (GIBCO), 100 U/mL IL-2 (Sigma), 100 U/mL IL-4 (Sigma), and 10% human AB serum (Sigma). HuT 102 cell line was cultured in RPMI 1640 supplemented with pyruvate, HEPES, and 10% (v/v) fetal bovine serum (HyClone). HEK293-hTRPA1 stable cell line was cultured in MEM (GIBCO) containing 2 mM Glutamine, 4 μg/mL Blasticidin, 10% FBS (v/v). B16 and CHO cells were cultured in high glucose (4.5 g/L) Dulbecco's Modified Eagle's Medium (GIBCO) containing 10% (v/v) fetal bovine serum (GIBCO). Culture media were supplemented with 50 units/mL of penicillin and 50 μg/mL streptomycin, and cultures were maintained with 5% CO2 in 37° C. incubator. Transfection (2 μg cDNA) was performed with Lipofectamine™ 2000 Reagent (Invitrogen) at 80% confluency and the transfected cells were cultured in the same media for 48 hr before electrophysiological and biochemical studies.\n(§1) Whole-Cell Patch Clamp Recordings in HEK293 Cells, CHO Cells, and DRG Neurons. Whole-cell patch clamp recordings were performed at room temperature using an Axopatch-200B amplifier (Axon Instruments) with a Digidata 1440B (Axon Instruments). In this study, we only examined small-diameter mouse DRG neurons (<25 μM) and small-diameter human DRG neurons (<55 μM). The patch pipettes were pulled from borosilicate capillaries (World Precision Instruments) using a P-97 Flaming/Brown micropipette puller (Sutter Instrument). Pipette resistance was 4-6 MΩ for whole-cell and outside-out recording. For inward current recordings in mouse and human DRG neurons, HEK293 cells, and CHO cells, the internal solution contains (in mM): 140 CsCl, 10 EGTA, 10 HEPES, and 2 Mg-ATP, adjusted to pH 7.3 with CsOH. Whole cell recordings were performed in an extracellular solution that contains (in mM): 140 NaCl, 5 KCl, 2 MgCl2, 10 HEPES, and 10 glucose, adjusted to pH 7.4 with NaOH and osmolarity to 300-310 mOsm. […] Action potential recordings were performed in small-diameter DRG neurons, with the following solutions: i) internal pipette solution contains: 126 mM K-gluconate, 10 mM NaCl, 1 mM MgCl2, 10 mM EGTA, 10 mM HEPES and 2 mM Na-ATP, adjusted to pH 7.4 with KOH and osmolarity to 295-300 mOsm), and ii) extracellular solution contains: 140 mM NaCl, 5 mM KCl, 2 mM MgCl2, 2 mM CaCl2, 10 mM HEPES, 10 mM glucose, adjusted to pH 7.4 with KOH."}, "DRG neurons": {"system": "DRG neurons", "experiment": "Calcium imaging in cultured DRG neurons of Pirt-GCaMP3 mice", "assay_type": "cell-based, mouse", "conditions": "for DRG neurons showing Ca2+ increase / responses: 544 neurons from 3 mice", "procedure": "Primary Cultures of Mouse and Human Sensory Neurons. […] Cells were mechanically dissociated with a flame polished Pasteur pipette in the presence of 0.05% DNase I (Sigma).\nCa^2+ Imaging. […] The imaging buffer includes 140 mM NaCl, 10 mM D-(+)-Glucose, 1 mM MgCl2, 2 mM CaCl2, 5 mM KCl, 10 mM HEPES, pH=7.4, osmolarity=320 mOsm/L. Calcium signals were measured using green emitted light in a 3 s interval. Ca ^2+ signal amplitudes were presented as ΔF/F0=(Ft−F0)/F0 as ratio of fluorescence difference (Ft−F0) to basal value (F0). The average fluorescence intensity in the baseline period was taken as F0. Ca ^2+ imaging was also analyzed in HEK293-TRPA1 cell line after loading cells with […] fura2-AM (Invitrogen) for 40 min in the Ca^2+ imaging buffer. Ca^2+ imaging protocol was a ratio metric method with 340/380-nm wavelength light for dual excitation. Data were presented as ΔR/R0, determined as the fraction ΔR (Rt−R0) of the increase of a given ratio over baseline ratio (R0)."}, "[1]": {"system": "small-diameter DRG neurons", "experiment": "Patch clamp, inward currents and action potentials in small-diameter mouse DRG neurons", "assay_type": "cell-based", "conditions": "for small-diameter neurons responding with inward currents or action potentials: AITC 15/90, miR-711 15/130", "procedure": "Primary Cultures of Mouse and Human Sensory Neurons. DRGs or TGs were removed aseptically from mice (4-6 weeks) and incubated with collagenase (1.25 mg/mL, Roche)/dispase-II (2.4 units/mL, Roche) at 37° C. for 90 min, then digested with 0.25% trypsin for 8 min at 37° C., followed by 0.25% trypsin inhibitor. Cells were mechanically dissociated with a flame polished Pasteur pipette in the presence of 0.05% DNase I (Sigma). DRG cells were plated on glass coverslips and grown in a neurobasal defined medium (with 2% B27 supplement, Invitrogen) with 5 μM AraC and 5% CO2 at 36.5° C. DRG neurons were grown for 24 hr before use.\nas §1"}, "[2]": {"conditions": "miR-711 50 μM, histamine 500 μM, CQ 1,000 μM, AITC 200 μM"}}}
{"compound": "miR-711: mmu-miR-711: gggacccggggagagauguaag (SEQ ID NO: 5) (GGGACCCGGGGAGAGAUGUAAG; chemistry not given here)", "values": [{"measurement": "desensitization of TRPA1 after second application", "setting": "hTRPA1; 10 μM", "value": "did not induce obvious desensitization"}, {"measurement": "current-voltage relationship", "setting": "hTRPA1; 10 μM, I/V curve", "value": "outward rectification"}, {"measurement": "reversal potential of evoked current", "setting": "hTRPA1; 10 μM, I/V curve", "value": 0, "unit": "mV"}, {"measurement": "inward currents", "setting": "hTRPA1; bath application, miRNAs and core sequence 10 μM, AITC 50 μM", "value": "produced inward currents"}, {"measurement": "potency for inducing TRPA1 activation (dose-response curve)", "setting": "hTRPA1; compared with AITC", "value": "more potent than AITC"}, {"measurement": "latency of inward currents", "setting": "hTRPA1; miR-711 10 μM versus AITC 50 μM, bath perfusion", "value": "shorter than that of AITC"}, {"measurement": "calcium signaling in DRG neurons", "setting": "DRG neurons; 10 μM", "value": "did not evoke meaningful calcium signaling"}, {"measurement": "DRG neurons showing Ca2+ increase / responses", "setting": "DRG neurons; [2]", "value": 3.9, "unit": "%"}, {"measurement": "DRG neurons showing calcium responses", "setting": "DRG neurons; miR-711 50 μM, 15 of 310 neurons", "value": 4.8, "unit": "%"}, {"measurement": "action potentials in small-diameter DRG neurons", "setting": "[1]; 10 μM, WT mice", "value": "induced action potentials"}, {"measurement": "inward currents in small-diameter DRG neurons", "setting": "[1]; 10 μM, WT mice", "value": "induced rapid inward currents"}, {"measurement": "small-diameter neurons responding with inward currents or action potentials", "setting": "[1]", "value": 11.5, "unit": "%"}, {"measurement": "miR-711-induced excitation (action potentials)", "setting": "[1]; TRPA1-deficient neurons", "value": "lost"}, {"measurement": "miR-711-induced inward currents in DRG neurons of knockout mice", "setting": "[1]; Trpa1 knockout mice", "value": "abolished"}, {"measurement": "action potential duration", "setting": "[1]; compared with AITC", "value": "shorter duration"}, {"measurement": "after-hyperpolarization of the action potentials", "setting": "[1]; compared with AITC", "value": "did not differ"}]}
{"compound": "CCC(=N\\O)/C(C)=C/c1ccc(F)cc1", "note": "[A967079, (1E,3E)-1-(4-Fluorophenyl)-2-methyl-1-pentene-3-one oxime]", "values": [{"measurement": "block of miR-711-evoked currents", "setting": "hTRPA1; A967079 10 and 50 μM", "value": "dose-dependently blocked"}, {"measurement": "block of miR-711-evoked calcium responses in DRG neurons", "setting": "DRG neurons; miR-711 50 μM, A967079 10 μM", "value": "completely blocked"}, {"measurement": "block of miR-711-induced action potentials", "setting": "[1]; A967079 10 μM", "value": "blocked"}, {"measurement": "block of miR-711-induced inward currents in DRG neurons", "setting": "[1]; A967079 10 μM", "value": "blocked"}]}
{"compound": "C=CCN=C=S", "note": "[AITC]", "values": [{"measurement": "miR-711-responsive DRG neurons that also responded", "setting": "DRG neurons; histamine 500 μM, CQ 1,000 μM, AITC 200 μM", "value": "all"}, {"measurement": "DRG neurons showing Ca2+ increase / responses", "setting": "DRG neurons; [2]", "value": 22.6, "unit": "%"}, {"measurement": "small-diameter neurons responding with inward currents or action potentials", "setting": "[1]", "value": 16.7, "unit": "%"}]}
{"compound": "NH2-FRNELAYPVLTFGQL-COOH (H-FRNELAYPVLTFGQL-OH) [blocking peptide]", "values": [{"measurement": "effect on AITC-induced inward current", "setting": "hTRPA1; peptide 25 μM", "value": "did not affect"}, {"measurement": "inhibition of miR-711-induced TRPA1 inward currents", "setting": "hTRPA1; peptide 25 μM", "value": "suppressed"}]}
